In patent US12383536B2, “CRF receptor antagonists and methods of use” (Neurocrine Biosciences, Inc., priority 2019, dated 2025):

Molecular target: T1, CRF1 receptor (Homo sapiens, UniProt P34998)
T1 sequence (P34998 24-415): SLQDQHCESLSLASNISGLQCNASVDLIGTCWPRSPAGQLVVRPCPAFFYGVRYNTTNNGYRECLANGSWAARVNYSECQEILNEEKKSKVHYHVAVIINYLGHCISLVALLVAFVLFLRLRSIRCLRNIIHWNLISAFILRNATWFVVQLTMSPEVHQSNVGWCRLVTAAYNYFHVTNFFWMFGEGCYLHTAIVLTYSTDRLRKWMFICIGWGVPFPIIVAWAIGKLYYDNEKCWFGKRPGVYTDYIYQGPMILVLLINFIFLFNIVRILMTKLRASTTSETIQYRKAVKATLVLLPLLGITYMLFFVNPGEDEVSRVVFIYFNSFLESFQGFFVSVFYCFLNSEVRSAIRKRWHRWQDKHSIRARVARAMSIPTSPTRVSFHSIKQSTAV
Experiment: CRF1 receptor antagonist activity: kinetically derived affinity (Ki = k-1/k1), procedures of Fleck et al.
Format: binding
Conditions: kinetically derived affinity calculated from association (k1) and dissociation (k-1) rate constants; read-out: kinetic Ki
Description: As reported in Fleck et al. (J. Pharmacology and Experimental Therapeutics, 341(2):518-531, 2012) (hereinafter “Fleck et al.” and incorporated by reference in it's entirely) the activity of a CRF1 receptor antagonists may be expressed as the kinetically derived affinity (Ki) calculated from the association (k1) and dissociation (k−1) rate constants by the following equation: Ki=k−1/k1
Compound 1 was evaluated according to these procedures, and the kinetic Ki was determined to be 1.14.

Ki: 1.14 nM
Structure (SMILES): C#CCN(c1nc(-c2cc(C)c(OC)cc2Cl)c(C)s1)C(CC1CC1)c1ccc(CO)c(F)c1 (racemic) [Compound 1, racemic {4-[1-{[4-(2-chloro-4-methoxy-5-methylphenyl)-5-methyl-1,3-thiazol-2-yl](prop-2-yn-1-yl)amino}-2-cyclopropylethyl]-2-fluorophenyl}methanol]
